Literature values as cited in patent US20220039380A1, “PEST CONTROL INCLUDING COMBINED MATING DISRUPTION AND TRAPPING” (Trécé Inc., priority 2019, published 2022).
Like-named read-outs stand apart in the source and are kept apart here.

Assays:
[1] = test system: Corn Earworm (CEW) Helocoverpa zea; settings: for % increase in Male capture above pheromone alone: pheromone synergists, field demonstrated
[2] = test system: Cabbage Looper (CL) Tricoplusia ni; settings: pheromone synergists, field demonstrated
[3] = test system: Beet Armyworm (BAW) Spodoptera exigua; settings: Field & Flight Tunnel
[4] = test system: Codling Moth (CM) Cydia pomonella; settings: for HPVs Reduce/Inhibit Pear Ester Attraction: Females Attraction: codling moth females
[5] = test system: Oriental Fruit Moth (OFM) Grapholita molesta; settings: for % increase in Male capture above pheromone alone: pheromone synergists, field demonstrated
[6] = test system: Codling Moth (CM) Cydia pomonella; settings: kairomone attractants without pheromone, field demonstrated, Male Lures
[7] = test system: Peach Twig Borer (PTB) Anarsia lineatella; settings: pheromone synergists, field demonstrated
[8] = test system: Beet Armyworm (BAW) Spodoptera exigua; settings: pheromone synergists, field demonstrated
[9] = test system: Codling Moth (CM) Cydia pomonella; settings: pheromone synergists, proven (field demonstrated)
[10] = test system: Tobacco Budworm (TBW) Heliothis virescens; settings: pheromone synergists, field demonstrated
[11] = test system: Omnivorous Leafroller (OLR) Platynota stultana; settings: pheromone synergists, field demonstrated
[12] = test system: Codling Moth (CM) Cydia pomonella; settings: pheromone synergists, suggested (lab flight tunnel demonstrated)
[13] = codling moth, added to Ethyl (2,4)(E,Z) decadienoate

## O=CCc1ccccc1 [phenyl acetaldehyde]
[1]
  Blossom Volatiles, Gaura Volatiles, repeated below the heading Pheromone Antagonists: phenyl acetaldehyde (216%)
  % increase in Male capture above pheromone alone: phenyl acetaldehyde (216%)
[2]
  % increase in Male capture above pheromone alone: phenyl acetaldehyde (188%)
[3]
  % increase in Male capture above pheromone alone: phenylacetaldehyde (135%)

## OCCc1ccccc1 [2-phenylethanol]
[2]
  % increase in Male capture above pheromone alone: 2-phenylethanol (131%)

## CCCCCC(=O)OCCCC [butyl hexanoate]
[4]; [13]
  HPVs Reduce/Inhibit Pear Ester Attraction: butyl hexanoate (−45%)

## C=CC(C)(O)CC/C=C(\C)CCC=C(C)C (centres unmarked) [(E)-nerolidol]
[1]
  % increase in Male capture above pheromone alone: (E)-nerolidol (193%)

## C=C/C(C)=C/C/C=C(/C)CCC=C(C)C [(Z,E)-alpha-farnesene]
[4]
  HPVs Reduce/Inhibit Pear Ester Attraction: Females Attraction: (Z,E)-alpha-farnesene (−87%)

## CCCCCCOC(C)=O [hexyl acetate]
[5]
  % increase in Male capture above pheromone alone: hexyl acetate (159%)
[1]
  % increase in Male capture above pheromone alone: hexyl acetate (176%)

## C=C/C=C(\C)CCC=C(C)C
[6]
  Male lure attraction (in words): dimethyl nonatriene (less females)
[5]
  % increase in Male capture above pheromone alone: dimethyl nonatriene (427%)
[7]
  % increase in Male capture above pheromone alone: dimethyl nonatriene (134%)
[1]
  % increase in Male capture above pheromone alone: dimethyl nonatriene (357%)

## CCC/C=C/C=O [(E)-2-hexenal]
[1]
  % increase in Male capture above pheromone alone: (E)-2-hexenal (176%)
[8]
  % increase in Male capture above pheromone alone: (E)-2-hexenal (123%)
[3]
  % increase in Male capture above pheromone alone: (E)-2-hexenal (139%)

## CC1=CCC(O)(C(C)C)CC1 (centres unmarked) [terpinen-4-ol]
[9]
  % increase in Male capture above pheromone alone: terpinen-4-ol (206%)

## C=C1CC/C=C(\C)CC[C@@H]2[C@@H]1CC2(C)C [(E)-beta-caryophyllene]
[5]
  % increase in Male capture above pheromone alone: (E)-beta-caryophyllene (147%)
[1]
  % increase in Male capture above pheromone alone: (E)-beta-caryophyllene (344%)

## CCC/C=C/COC(C)=O [(E)-2-hexenyl acetate]
[5]
  % increase in Male capture above pheromone alone: (E)-2-hexenyl acetate (210%)
[1]
  % increase in Male capture above pheromone alone: (E)-2-hexenyl acetate (190%)
[10]
  % increase in Male capture above pheromone alone: (E)-2-hexenyl acetate (183%)

## CC1=CC[C@@H]2C[C@H]1C2(C)C [(R)-(+)-alpha-pinene]
[1]
  % increase in Male capture above pheromone alone: (R)-(+)-alpha-pinene (348%)

## CC(C)=CCCC(C)=CCCC(C)=CCO [farnesol]
[4]; [13]
  HPVs Reduce/Inhibit Pear Ester Attraction: farnesol (−56%)

## C=C/C(C)=C/CC=C(C)C [(E)-beta-ocimene]
[9]
  % increase in Male capture above pheromone alone: (E)-beta-ocimene (170%)
[1]
  % increase in Male capture above pheromone alone: (E)-beta-ocimene (141%)

## O=Cc1ccccc1 [benzaldehyde]
[5]
  Pheromone Antagonists: benzaldehyde (68%)

## CC1=CCC(C(C)C)=CC1 [gamma-terpinene]
[9]
  % increase in Male capture above pheromone alone: gamma-terpinene (131%)

## CC(C)CCO [3-methyl butanol]
[9]
  % increase in Male capture above pheromone alone: 3-methyl butanol (184%)

## CCCCCC(C)O (centres unmarked) [heptan-2-ol]
[1]
  % increase in Male capture above pheromone alone: heptan-2-ol (283%)

## C=C1C=CC(C(C)C)CC1 (stereo not drawn) [beta-phellandrene]
[1]
  % increase in Male capture above pheromone alone: beta-phellandrene (342%)

## C=C/C(C)=C/C/C=C(\C)CCC=C(C)C [(E,E)-alpha-farnesene]
[4]; [13]
  HPVs Reduce/Inhibit Pear Ester Attraction: (E,E)-alpha-farnesene (−68%)
[7]
  % increase in Male capture above pheromone alone: (E,E)-alpha-farnesene (144%)

## CCC/C=C/CO [(E)-2-hexenol]
[11]
  Pheromone synergism: (E)-2-hexenol (204%)
[7]
  % increase in Male capture above pheromone alone: (E)-2-hexenol (131%)
[2]
  % increase in Male capture above pheromone alone: (E)-2-hexenol (112%)

## CC/C=C\CC1C(=O)CCC1CC(=O)OC (centres unmarked) [methyl jasmonate]
[1]
  % increase in Male capture above pheromone alone: methyl jasmonate (255%)

## CC/C=C\CCOC(C)=O [(Z)-3-hexenyl acetate]
[12]
  Pheromone synergism: (Z)-3-hexenyl acetate (151%)
[4]; [13]
  HPVs Enhance Pear Ester Attraction (in words): (Z)-3-hexenyl acetate (additive)
[5]
  % increase in Male capture above pheromone alone: (Z)-3-hexenyl acetate (258%)
[7]
  % increase in Male capture above pheromone alone: (Z)-3-hexenyl acetate (143%)
[10]
  % increase in Male capture above pheromone alone: (Z)-3-hexenyl acetate (217%)
[3]
  % increase in Male capture above pheromone alone: (Z)-3-hexenyl acetate (125%)

## COC(=O)c1ccccc1O [methyl salicylate]
[1]
  % increase in Male capture above pheromone alone: methyl salicylate (172%)

## CC1=CC[C@H]2C[C@@H]1C2(C)C [(S)-(−)-alpha-pinene]
[1]
  % increase in Male capture above pheromone alone: (S)-(−)-alpha-pinene (215%)

## Cc1ccc(C(C)C)cc1 [para-cymene]
[9]
  % increase in Male capture above pheromone alone: para-cymene (187%)

## CC1=CC[C@H](C(C)C)C=C1 [alpha-phellandrene]
[1]
  % increase in Male capture above pheromone alone: alpha-phellandrene (152%)

## CCCCCCCC(=O)OC [methyl octanoate]
[7]
  % increase in Male capture above pheromone alone: methyl octanoate (172%)

## C=CC(C)(O)CCC=C(C)C (racemic) [(±) linalool]
[12]
  Pheromone synergism: (±) linalool (162%)

## CCCCCCO [hexanol]
[2]
  % increase in Male capture above pheromone alone: hexanol (132%)

## C=C(C)[C@H]1CC=C(C)CC1 [limonene]
[7]
  % increase in Male capture above pheromone alone: limonene (132%)
[1]
  % increase in Male capture above pheromone alone: limonene (150%)

## C/C1=C\CC/C(C)=C/CC(C)(C)/C=C/C1 [humulene]
[1]
  % increase in Male capture above pheromone alone: humulene (220%)

## butanol
[9]
  % increase in Male capture above pheromone alone: butanol (202%)

## CCCCCCCCC=O [nonanal]
[4]
  HPVs Reduce/Inhibit Pear Ester Attraction: Females Attraction: nonanal (−95%)
[1]
  % increase in Male capture above pheromone alone: nonanal (219%)

## CC/C=C\CCO [(Z)-3-hexenol]
[11]
  Pheromone synergism: (Z)-3-hexenol (193%)
[7]
  % increase in Male capture above pheromone alone: (Z)-3-hexenol (117%)
[1]
  % increase in Male capture above pheromone alone: (Z)-3-hexenol (128%)
[2]
  % increase in Male capture above pheromone alone: (Z)-3-hexenol (152%)
[3]
  % increase in Male capture above pheromone alone: (Z)-3-hexenol (121%)

## CCC(C)C=NO (centres unmarked) [2-methyl butanal oxime]
[1]
  % increase in Male capture above pheromone alone: 2-methyl butanal oxime (196%)
[2]
  % increase in Male capture above pheromone alone: 2-methyl butanal oxime (196%)

## CCCCCC=O [hexanal]
[1]
  % increase in Male capture above pheromone alone: hexanal (237%)
[8]
  % increase in Male capture above pheromone alone: hexanal (107%)

## C=CC(=C)CCC=C(C)C [myrcene]
[9]
  % increase in Male capture above pheromone alone: myrcene (190%)

## CC(C)=CCC[C@]1(C)[C@H]2CC=C(C)[C@@H]1C2 [alpha-(E)-bergamotene]
[1]
  % increase in Male capture above pheromone alone: alpha-(E)-bergamotene (285%)
